Results as given in patent US20210355121A1, “FUSED TRICYCLIC KRAS INHIBITORS” (Incyte Corporation, priority 2020, published 2021).
Read-outs that look alike come from different tables or passages of the source.

Columns and labels:
KRAS G12C = KRAS G12C (Homo sapiens, UniProt P01116, G12C); experiment: KRAS G12C GDP-GTP exchange assay (bodipy-GDP for GppNHp, with SOS1); assay type: biochemical; design: G12C_exchange (KRAS_G12C exchange assay IC50): scale not given here; details: 2.5 nM bodipy-loaded KRAS G12C, 2 hours pre-incubation with inhibitor, 2 hours after GppNHp-SOS1; for IC50: read-out: G12C_exchange (KRAS_G12C exchange assay IC50)
Chain of KRAS G12C (P01116 1-188 isoform P01116-2 G12C): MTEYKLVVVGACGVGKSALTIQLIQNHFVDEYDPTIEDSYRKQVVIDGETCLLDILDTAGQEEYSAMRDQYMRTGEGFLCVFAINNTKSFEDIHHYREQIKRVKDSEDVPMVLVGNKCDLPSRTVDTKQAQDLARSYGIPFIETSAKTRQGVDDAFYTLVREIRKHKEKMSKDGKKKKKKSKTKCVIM
Protocol: The inhibitor potency of the exemplified compounds was determined in a fluorescence based guanine nucleotide exchange assay, which measures the exchange of bodipy-GDP (fluorescently labeled GDP) for GppNHp (Non-hydrolyzable GTP analog) to generate the active state of KRAS in the presence of SOS1 (guanine nucleotide exchange factor). Inhibitors were serially diluted in DMSO and a volume of 0.1 μL was transferred to the wells of a black low volume 384-well plate. 5 μL/well volume of bodipy-loaded KRAS G12C diluted to 5 nM in assay buffer (25 mM Hepes pH 7.5, 50 mM NaCl, 10 mM MgCl2 and 0.01% Brij-35) was added to the plate and pre-incubated with inhibitor for 2 hours at ambient temperature. Appropriate controls (enzyme with no inhibitor or with a G12C inhibitor (AMG-510)) were included on the plate. The exchange was initiated by the addition of a 5 μL/well volume containing 1 mM GppNHp and 300 nM SOS1 in assay buffer. The 10 μL/well reaction concentration of the bodipy-loaded KRAS G12C, GppNHp, and SOS1 were 2.5 nM, 500 uM, and 150 nM, respectively. The reaction plates were incubated at ambient temperature for 2 hours, a time estimated for complete GDP-GTP exchange in the absence of inhibitor. For the KRAS G12D and G12V mutants, similar guanine nucleotide exchange assays were used with 2.5 nM as final concentration for the bodipy loaded KRAS proteins and with 4 hours and 3 hours incubation after adding GppNHp-SOS1 mixture for G12D and G12V respectively. A cyclic peptide described to selectively bind G12D mutant (Sakamoto et al., BBRC 484.3 (2017), 605-611) or internal compounds with confirmed binding were used as positive controls in the assay plates. Fluorescence intensities were measured on a PheraStar plate reader instrument (BMG Labtech) with excitation at 485 nm and emission at 520 nm.
Either GraphPad prism or XLfit was used to analyze the data. The IC50 values were derived by fitting the data to a four parameter logistic equation producing a sigmoidal dose-response curve with a variable Hill coefficient. Prism equation: Y=Bottom+(Top−Bottom)/(1+10^((Log IC50−X)*Hill slope)); XLfit equation: Y=(A+((B−A)/(1+((X/C)^D)))) where X is the logarithm of inhibitor concentration and Y is the response.

[1] = tested on: MIA PaCa-2 (KRAS G12C) cells; experiment: KRAS_G12C cellular pERK HTRF assay; assay type: cell-based, human; details: phospho-ERK1/2 HTRF, 4 hours incubation, read-out: G12C_pERK (KRAS_G12C pERK assay IC50)
Protocol: MIA PaCa-2 (KRAS G12C; ATCC® CRL-1420), A427 (KRAS G12D; ATCC® HTB53), HPAF-II (KRAS G12D; ATCC® CRL-1997) and NCI-H838 (KRAS WT; ATCC® CRL-5844) cells are purchased from ATCC and maintained in RPMI 1640 media supplemented with 10% FBS (Gibco/Life Technologies). The cells are plated at 5000 cells per well (8 uL) into Greiner 384-well low volume, flat-bottom, tissue culture treated white plates and incubated overnight at 37° C., 5% CO2. The next morning, test compound stock solutions are diluted in media at 3× the final concentration, and 4 uL are added to the cells. The plate is mixed by gentle rotation for 30 seconds (250 rpm) at room temperature. The cells are incubated with the KRAS G12C and G12D compounds for 4 hours or 2 hours respectively at 37° C., 5% CO2.
4 uL of 4× lysis buffer with blocking reagent (1:25) (Cisbio) are added to each well and plates are rotated gently (300 rpm) for 30 minutes at room temperature. 4 uL per well of Cisbio anti Phospho-ERK 1/2 d2 is mixed with anti Phospho-ERK 1/2 Cryptate (1:1) are added to each well, mixed by rotation and incubated overnight in the dark at room temperature. Plates are read on the Pherastar plate reader at 665 nm and 620 nm wavelengths. IC50 determination is performed by fitting the curve of inhibitor percent inhibition versus the log of the inhibitor concentration using the GraphPad Prism 7 software.

Compound	IC50 (KRAS G12C) [nM]	IC50 ([1]; Homo sapiens, MIA PaCa-2) [nM]	G12C_exchange (KRAS_G12C exchange assay IC50) (KRAS G12C)	also measured
Cc1c(Cl)cc2[nH]ncc2c1-c1c(Cl)cc2c(nc(N3CC(N(C)C)C3)c3cnn([C@H]4CCN(C(=O)/C=C/CN(C)C)[C@H](CC#N)C4)c32)c1F (single isomer, unassigned) [Example 4a]	≤ 100	≤ 100		
COC/C=C/C(=O)N1CC[C@H](n2ncc3c(N4CC(N(C)C)C4)nc4c(F)c(-c5c(C)c(Cl)cc6[nH]ncc56)c(Cl)cc4c32)C[C@H]1CC#N (single isomer, unassigned) [Example 5b]			††	
C=CC(=O)N1CC[C@H](n2ncc3c(N4CC(N(C)C)C4)nc4c(F)c(-c5c(C)c(Cl)cc6[nH]ncc56)c(Cl)cc4c32)C[C@H]1CC#N (single isomer, unassigned) [Example 3b]	≤ 100			IC50 [1]: ≤ 100 nM
Cc1c(Cl)cc2[nH]ncc2c1-c1c(Cl)cc2c(nc(N3CC(C)(N(C)C)C3)c3cnn([C@H]4CCN(C(=O)/C=C/C(F)F)[C@H](CC#N)C4)c32)c1F (single isomer, unassigned) [Example 14b]			††	
CC#CC(=O)N1CC[C@H](n2ncc3c(N4CC(N(C)C)C4)nc4c(F)c(-c5c(C)c(Cl)cc6[nH]ncc56)c(Cl)cc4c32)C[C@H]1CC#N (single isomer, unassigned) [Example 9b]			††	
CC#CC(=O)N1CC[C@H](n2ncc3c(N4CC(C)(N(C)C)C4)nc4c(F)c(-c5c(C)c(Cl)cc6[nH]ncc56)c(Cl)cc4c32)C[C@H]1CC#N (single isomer, unassigned) [Example 11b]			††	
C=C(F)C(=O)N1CC[C@H](n2ncc3c(N4CC(C)(N(C)C)C4)nc4c(F)c(-c5c(C)c(Cl)cc6[nH]ncc56)c(Cl)cc4c32)C[C@H]1CC#N (single isomer, unassigned) [Example 15b]			††	
Cc1c(Cl)cc2[nH]ncc2c1-c1c(Cl)cc2c(nc(N3CC(C)(N(C)C)C3)c3cnn([C@H]4CCN(C(=O)/C=C/CN(C)C)[C@H](CC#N)C4)c32)c1F (single isomer, unassigned) [Example 10b]			††	
C=CC(=O)N1CC[C@H](n2ncc3c(N4CC(C)(N(C)C)C4)nc4c(F)c(-c5c(C)c(Cl)cc6[nH]ncc56)c(Cl)cc4c32)C[C@H]1CC#N (single isomer, unassigned) [Example 16b]			††	
CC#CC(=O)N1CC[C@H](n2ncc3c(OC[C@@H]4CCCN4C)nc4c(F)c(-c5c(C)c(Cl)cc6[nH]ncc56)c(Cl)cc4c32)C[C@H]1CC#N (single isomer, unassigned) [Example 18b]			††	
C=C(F)C(=O)N1CC[C@H](n2ncc3c(N4CC(N(C)C)C4)nc4c(F)c(-c5c(C)c(Cl)cc6[nH]ncc56)c(Cl)cc4c32)C[C@H]1CC#N (single isomer, unassigned) [Example 8b]			††	
Cc1c(Cl)cc2[nH]ncc2c1-c1c(Cl)cc2c(nc(N3CC(N(C)C)C3)c3cnn([C@H]4CCN(C(=O)/C=C/CF)[C@H](CC#N)C4)c32)c1F (single isomer, unassigned) [Example 6b]			††	
Cc1c(Cl)cc2[nH]ncc2c1-c1c(Cl)cc2c(nc(N3CC(C)(N(C)C)C3)c3cnn([C@H]4CCN(C(=O)/C=C/CF)[C@H](CC#N)C4)c32)c1F (single isomer, unassigned) [Example 13b]			††	
Cc1c(Cl)cc2[nH]ncc2c1-c1c(Cl)cc2c(nc(N3CC(N(C)C)C3)c3cnn([C@H]4CCN(C(=O)/C=C/C(F)F)[C@H](CC#N)C4)c32)c1F (single isomer, unassigned) [Example 7b]			††	
COC/C=C/C(=O)N1CC[C@H](n2ncc3c(N4CC(C)(N(C)C)C4)nc4c(F)c(-c5c(C)c(Cl)cc6[nH]ncc56)c(Cl)cc4c32)C[C@H]1CC#N (single isomer, unassigned) [Example 12b]			††	
Cc1c(Cl)cc2[nH]ncc2c1-c1c(Cl)cc2c(nc(N3CC(N(C)C)C3)c3cnn([C@H]4CCN(C(=O)/C=C/CN(C)C)[C@H](CC#N)C4)c32)c1F (single isomer, unassigned) [Example 4b]			††	

More lines, main results first:

IC50 (KRAS G12C) [nM]	IC50 ([1]; Homo sapiens, MIA PaCa-2) [nM]	G12C_exchange (KRAS_G12C exchange assay IC50) (KRAS G12C)	Compound	also measured
≤ 100	≤ 100		Cc1cc2c(nc(OC[C@@H]3CCCN3C)c3cnn([C@H]4CCN(C(=O)/C=C/CF)[C@H](CC#N)C4)c32)c(F)c1-c1cccc2cccc(C#N)c12 (single isomer, unassigned) [Example 51a]	
≤ 100	≤ 100		C=CC(=O)N1CC[C@H](n2ncc3c(OC[C@@H]4CCCN4C)nc4c(F)c(-c5c(C)c(Cl)cc6[nH]ncc56)c(Cl)cc4c32)C[C@H]1CC#N (single isomer, unassigned) [Example 20a]	
≤ 100	≤ 100		Cc1cc2[nH]ncc2c(-c2c(Cl)cc3c(nc(N4CC(C)(N(C)C)C4)c4cnn([C@H]5CCN(C(=O)/C=C/CN(C)C)[C@H](CC#N)C5)c43)c2F)c1C (single isomer, unassigned) [Example 84a]	
≤ 100	≤ 100		CC#CC(=O)N1CC[C@H](n2ncc3c(N4CC(N(C)C)C4)nc4c(F)c(-c5c(C)c(C)cc6[nH]ncc56)c(Cl)cc4c32)C[C@H]1CC#N (single isomer, unassigned) [Example 74a]	
≤ 100	≤ 100		COC/C=C/C(=O)N1CC[C@H](n2ncc3c(N4CC(C)(N(C)C)C4)nc4c(F)c(-c5c(C)c(C)cc6[nH]ncc56)c(Cl)cc4c32)C[C@H]1CC#N (single isomer, unassigned) [Example 83a]	
≤ 100	≤ 100		COC/C=C/C(=O)N1CC[C@H](n2ncc3c(OC[C@@H]4CCCN4C)nc4c(F)c(-c5cccc6cccc(C#N)c56)c(C)cc4c32)C[C@H]1CC#N (single isomer, unassigned) [Example 54a]	
≤ 100	≤ 100		C=C(F)C(=O)N1CC[C@H](n2ncc3c(O[C@@H](C)[C@@H]4CCCN4C)nc4c(F)c(-c5cccc6cccc(C#N)c56)c(C)cc4c32)C[C@H]1CC#N (single isomer, unassigned) [Example 56b]	
≤ 100	≤ 100		C[C@H](Oc1nc2c(F)c(-c3cccc4cccc(Cl)c34)c(Cl)cc2c2c1cnn2[C@H]1CCN(C(=O)/C=C/CF)[C@H](CC#N)C1)[C@@H]1CCCN1C [Example 85, 2-((2S,4S)-4-(8-chloro-7-(8-chloronaphthalen-1-yl)-6-fluoro-4-((S)-1-((S)-1-methylpyrrolidin-2-yl)ethoxy)-1H-pyrazolo[4,3-c]quinolin-1-yl)-1-((E)-4-fluorobut-2-enoyl)piperidin-2-yl)acetonitrile]	
		††	COC/C=C/C(=O)N1CC[C@H](n2ncc3c(OC[C@@H]4CCCN4C)nc4c(F)c(-c5c(C)c(Cl)cc6[nH]ncc56)c(Cl)cc4c32)C[C@H]1CC#N (single isomer, unassigned) [Example 19b]	
≤ 100			C=CC(=O)N1CC[C@H](n2ncc3c(OC[C@@H]4CCCN4C)nc4c(F)c(-c5c(C)c(Cl)cc6[nH]ncc56)c(Cl)cc4c32)C[C@H]1CC#N (single isomer, unassigned) [Example 20b]	
